Experiment in all cases: DTP human tumour cell line panel, 48 h
For assay [1], the system named is SK-MEL-5 melanoma.
In assay [2] the test system is MCF7 breast.
Assay [3] relates to MOLT-4 leukemia.
In assay [4] the test system is ACHN renal.
For assay [5], the system named is A498 renal.
Assay [6] concerns SNB-19 CNS.
Assay [7] concerns MDA-MB-435.
Assay [8] deals with CCRF-CEM leukemia.
Assay [9] deals with RPMI-8226 leukemia.
The subject of assay [10] is KM12 colon.
Assay [11] relates to K-562 leukemia.
In assay [12] the test system is TK-10 renal.
Assay [13] has as its system SNB-75 CNS.
Assay [14] has as its system UO-31 renal.
For assay [15], the system named is T-47D breast.
For assay [16], the system named is HOP-62 NSCLC.
In assay [17] the test system is NCI-H460 lung.
The subject of assay [18] is HL-60(TB) leukemia.
For assay [19], the system named is SR leukemia.

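Step 1: Grow cells in 96-well plates. Step 2: Expose to compound for 48 hours at 5 concentrations. Step 3: Interpolate endpoints linearly; if unreached, use highest concentration. TGI marks complete inhibition of growth.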

The results in this text go back to PubChem BioAssay (NCI).

For `CCOC(=O)C1C(c2ccco2)C2(C#N)C(=N)OC1(C)C2(C#N)C#N` (centres undefined), the TGI in [1], in assay [2], in assay [3], in assay [4], in [5] and in assay [6] was > 100 µM throughout. For the same compound, the TGI in [7], in assay [8], in assay [9], in assay [10], in assay [11] and in [12] was > 100 µM in each case. The TGI in [13], in assay [14] and in assay [15] was > 100 µM in each case.
On to `CCOc1ccc(NC(=O)/C(Cc2nc3ccccc3[nH]c2=O)=N\O)cc1`, for which the TGI in assay [1], in assay [3], in assay [4], in assay [5], in [6] and in [8] was > 100 µM each time. For the same compound, the concentration for total growth inhibition (TGI) in [16], in assay [17], in assay [9], in assay [10], in assay [11] and in assay [12] was > 100 µM in each case. Also, the TGI in [13] and in assay [14] was > 100 µM in each case.
For the compound `CCOc1ccccc1NC(=O)CSc1nnc(Cc2ccccc2)o1`, the TGI in assay [1] is 38.8 µM; in [3], 71.3 µM; in assay [4], 46.3 µM; in assay [5] it was > 100 µM; in [6], 48.7 µM; in assay [8], > 100 µM. The TGI is > 100 µM in assay [16]; 44.8 µM in [17]; > 100 µM in assay [9]; > 100 µM in assay [10]; > 100 µM in assay [18]; > 100 µM in assay [11]. Besides, the results for the total growth inhibition concentration (TGI) in [12], in assay [13] and in assay [14] were > 100 µM, > 100 µM and 52 µM, respectively.
`CC(=O)CC(=O)ON(C)C(C)=O`: the TGI in assay [1], in [3], in assay [4], in assay [19], in [6] and in assay [8] was > 100 µM throughout. The TGI in assay [16], in assay [17], in assay [9], in assay [10], in [18] and in [11] was > 100 µM in each case. In addition, the TGI in [12], in assay [13] and in assay [14] was > 100 µM in each case.
For the compound `O=S(Nc1ccccc1)c1ccccc1Oc1ccccc1` (centres undefined), the TGI in assay [1], in assay [2], in assay [3], in assay [4], in assay [19] and in assay [6] was > 100 µM in each case. Also, the total growth inhibition concentration (TGI) in assay [7], in assay [8], in [16], in assay [17], in assay [9] and in assay [10] was > 100 µM throughout. The total growth inhibition concentration (TGI) in assay [18], in assay [11], in assay [12], in assay [13] and in assay [14] was > 100 µM throughout.
Consider `Cc1cc(N(CCC#N)CCC#N)ccc1/C=C(\NC(=O)/C=C/c1ccccc1)NC(=O)Nc1ccccc1C`, for which the TGI in [1], in assay [3], in assay [4], in assay [5], in assay [6] and in [8] was > 100 µM throughout. Besides, the total growth inhibition concentration (TGI) in [17], in assay [9], in assay [10], in [18], in assay [11] and in assay [14] was > 100 µM throughout.
On to `CC(C)NC1CCCCC2c3cc(F)ccc3[C@]12O` (some centres undefined), for which the TGI in [1], in assay [3], in assay [4], in [5], in assay [6] and in [8] was > 100 µM throughout. In addition, the TGI in assay [16], in assay [17], in assay [9], in [10], in assay [18] and in assay [11] was > 100 µM each time. For the same compound, the TGI in assay [12], in [13] and in assay [14] was > 100 µM throughout.
Take `CC(=O)OC1COC(n2c(O)c(N=Nc3ccc([N+](=O)[O-])cc3)c3cc(Br)c([N+](=O)[O-])cc32)C(OC(C)=O)C1OC(C)=O` (centres undefined): the total growth inhibition concentration (TGI) was > 100 µM in [1]; > 100 µM in [3]; 93.6 µM in assay [4]; > 100 µM in assay [19]; > 100 µM in assay [6]; > 100 µM in assay [8]. The total growth inhibition concentration (TGI) in assay [16], in [17], in [9], in assay [10], in [18] and in assay [11] was > 100 µM each time. Also, in assay [12], the TGI was > 100 µM.
`CCN1C(=O)/C(=C\c2coc3ccccc3c2=O)SC1=S`: the TGI in assay [1], in [3], in [4], in assay [5], in assay [19] and in [6] was > 100 µM throughout. The concentration for total growth inhibition (TGI) in assay [8], in [16], in assay [17], in assay [9], in assay [10] and in assay [18] was > 100 µM each time. The total growth inhibition concentration (TGI) in [11], in [12], in [13] and in [14] was > 100 µM in each case.
Consider `CC(/C=C/c1ccccc1)=N\N=C(C)\C=C\c1ccccc1`, for which the TGI in [1], in [3], in assay [4], in assay [5], in assay [19] and in [8] was > 100 µM in each case. Also, the TGI in [16], in assay [17], in assay [9], in [10], in assay [18] and in assay [11] was > 100 µM throughout. Further, the TGI in assay [12] and in assay [13] was > 100 µM each time.
Take `COc1ccc2c(c1)CC[C@@H]1C2CC[C@]2(C)C(=N\O)/C(=N/O)CC12` (some centres undefined): the TGI in assay [1] turned out to be 25.7 µM; in assay [3], 21.1 µM; in assay [4], 33.6 µM; in assay [5] it was 34.2 µM; in [6] it was 32.9 µM; in assay [8] it was 29.9 µM. Also, the TGI in assay [16] was 26 µM; in [17], 12.5 µM; in [9], 35.2 µM; in [10], 42.7 µM; in [18], 35.7 µM; in [11] it was 36 µM. The TGI in [12] was determined as 41.2 µM; in assay [14] it was 26.5 µM.
Regarding `CC1(OCc2ccccc2)C(=O)N2C1N(C(=O)OCc1ccccc1)CC2(C)C` (centres undefined), the TGI was 33.5 µM in assay [1]; 77.4 µM in [3]; > 100 µM in assay [4]; > 100 µM in [5]; 95 µM in assay [19]; > 100 µM in [6]. The TGI is > 100 µM in [8]; > 100 µM in assay [16]; > 100 µM in assay [17]; 95.7 µM in assay [9]; 90.5 µM in [18]; > 100 µM in assay [11]. Further, the TGI in [12], in assay [13] and in assay [14] was > 100 µM in each case.
For the compound `O=C(N/C(=C\NC1=NCCS1)C(=O)N1CSC[C@@H]1C(=O)O)c1ccccc1`, the TGI in assay [1], in assay [2], in assay [3], in [4], in [5] and in assay [6] was > 100 µM throughout. Moreover, the total growth inhibition concentration (TGI) in [7], in [8], in [16], in [17], in assay [9] and in assay [10] was > 100 µM each time. The TGI in assay [18], in assay [11], in assay [12], in [13], in assay [14] and in [15] was > 100 µM in each case.
In the case of `CC(=O)Oc1c(C)cc2c(c1C)C(C)(C)CN2C(=O)C(C)(C)C`, the TGI in [1], in assay [2], in [3], in assay [4], in [5] and in assay [6] was > 100 µM each time. Besides, the total growth inhibition concentration (TGI) in [7], in [8], in [16], in assay [17], in assay [9] and in [10] was > 100 µM in each case. Further, the TGI in assay [18] was > 100 µM; in [11], > 100 µM; in assay [12] it was > 100 µM; in assay [13] it was 31 µM; in [14], > 100 µM; in [15], 96.2 µM.
As to `Nc1nc(N)c2c(CCc3ccc(C(=O)N[C@@H](CCC(=O)O)C(=O)O)cc3)ccnc2n1`, the TGI in assay [1], in [3], in [4], in assay [5], in assay [19] and in assay [6] was > 100 µM each time. Moreover, the TGI in [7], in [8], in assay [16], in assay [17], in [9] and in assay [10] was > 100 µM in each case. Further, the TGI in assay [18], in [11], in assay [12], in [13], in assay [14] and in [15] was > 100 µM each time.
Consider `Cc1ccc([N+]2=NC(c3ccc([N+](=O)[O-])cc3)=NN(c3ccccc3)C2)cc1`, for which the TGI in assay [1], in assay [3], in [4], in assay [5], in assay [19] and in [6] was > 100 µM each time. Moreover, the TGI in assay [8], in [16], in assay [17], in assay [9], in [18] and in [11] was > 100 µM throughout. In addition, the total growth inhibition concentration (TGI) in assay [12] and in assay [14] was > 100 µM throughout.
As to `COc1cc(C(=O)O)cc2c1[nH]c1ccccc12`, the TGI in assay [1], in [3], in assay [4], in assay [19], in [6] and in assay [8] was > 25 µM each time. For the same compound, the total growth inhibition concentration (TGI) in assay [16], in [17], in assay [9], in [10], in [18] and in assay [11] was > 25 µM throughout. For the same compound, the TGI in assay [12] and in assay [14] was > 25 µM each time.
`O=C1CCN=C(NC(=O)C(F)(F)F)N1CCc1c[nH]c2ccccc12`: the TGI in assay [1], in assay [2], in assay [3], in assay [4], in assay [5] and in assay [6] was > 100 µM throughout. For the same compound, the TGI in [7], in assay [8], in [16], in assay [17], in [9] and in assay [10] was > 100 µM in each case. The TGI in assay [18], in assay [11], in [12], in assay [14] and in [15] was > 100 µM each time.
